Data taken from US8546389B2 (priority 2010, dated 2013).

Key:
1b (BK) NS5bΔ21 = 1b (BK) NS5bΔ21 (Hepatitis C virus genotype 1b (isolate BK) (HCV), UniProt P26663); test: HCV polymerase inhibition assay, genotype 1b; format: biochemical, HCV genotype 1b (BK); settings: 1b (BK) NS5bΔ21, 33P-GTP incorporation; read-out: 1b polymerase IC50 (range class)
Method: HCV polymerase reactions were carried out using a modified method of Howe et al., Antimicrobial Agents and Chemotherapy 2004 48(12): 4813-4821. Reactions contained a final concentration of, 0.5% DMSO, 50 nM, 1b (BK) NS5bΔ21, 20 mM Tris-HCl pH 7.5, 5 mM MgCl2, 5 mM MnCl2, 3 mM DTT, 0.05% BSA, 0.2 U/μL RNasin, 10 μg/mL Poly(rC) template, GTP (at Km) and 0.05 μCi/μL ^33P-GTP in a total reaction volume of 50 μL. Compounds were tested in a three fold dilution series, for example starting from 50 μM. Reactions were initiated with the addition of GTP and terminated after 1 hour with 50 μL ice cold 0.2 M EDTA. Terminated reactions were transferred to DEAE 96-well filter plates, unincorporated nucleotides washed from the filters and 50 μL scintillation fluid added prior to reading on a scintillation counter. Similarly, a genotype 3a (VRL-69) NS5bΔ21 polymerase enzyme assay was conducted using essentially the same method.
The compound concentration that reduced ^33P-GTP incorporation by 50% (IC50) was calculated using non-linear regression.

[1] = tested on: genotype 1b (Con 1) subgenomic replicon cell line; test: HCV replicon assay, genotype 1b (Renilla luciferase); format: cell-based, HCV genotype 1b (Con 1); settings: Hepatitis C virus; genotype 1b replicon, 72 hours, luciferase; read-out: genotype 1b EC50 (range class)
Method: A genotype 1b (Con 1) subgenomic replicon cell line based on Blight et al., Science 2000 290: 1972-1974, modified to express a Renilla luciferase reporter gene was used to assess antiviral activity of test compounds. Cell cultures were maintained in a sub-confluent state in DMEM with glutamine, 10% heat-inactivated foetal bovine serum (FBS) and G418 (Geneticin®).
For assay, cells were seeded at a density of 7000 cells/well into 96 well tissue culture trays in culture media lacking G418. Compounds were tested in a three fold dilution series, for example starting from 50 uM. After 72 hours incubation at 37° C. and 5% CO2, Renilla luciferase activity was quantified via the Promega Renilla Luciferase or Renilla-Glo™ Luciferase Assay Systems (Promega corporation. The same method was employed for replicon assays using subgenomic genotype 1a and 2a replicon cell lines with a seeding cell density of 5000 cells/well for the 2a cell lines.
The compound concentration that reduced luciferase activity by 50% (EC50) was calculated using non-linear regression.

Sequence of 1b (BK) NS5bΔ21 (P26663 2420-2989): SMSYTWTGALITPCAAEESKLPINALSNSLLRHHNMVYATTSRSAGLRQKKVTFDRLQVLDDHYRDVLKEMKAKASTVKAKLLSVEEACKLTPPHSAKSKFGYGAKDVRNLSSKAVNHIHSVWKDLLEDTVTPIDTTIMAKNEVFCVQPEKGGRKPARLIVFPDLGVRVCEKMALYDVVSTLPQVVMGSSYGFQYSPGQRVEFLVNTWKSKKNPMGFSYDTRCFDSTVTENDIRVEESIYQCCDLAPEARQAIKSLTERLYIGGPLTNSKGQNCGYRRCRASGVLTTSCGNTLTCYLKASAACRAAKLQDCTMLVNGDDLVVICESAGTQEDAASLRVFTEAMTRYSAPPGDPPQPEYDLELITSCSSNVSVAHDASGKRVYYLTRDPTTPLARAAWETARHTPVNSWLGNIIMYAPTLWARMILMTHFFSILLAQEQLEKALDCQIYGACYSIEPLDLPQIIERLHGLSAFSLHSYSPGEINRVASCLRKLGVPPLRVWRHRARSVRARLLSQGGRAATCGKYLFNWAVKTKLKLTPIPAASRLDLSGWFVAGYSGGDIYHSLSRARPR

SMILES | IC50 (1b (BK) NS5bΔ21) [µM] | EC50 [1] [µM]
CCOC(=O)CCCC(c1cc2nn(-c3ccc(C)cc3)c(C(=O)NC)c2cc1C1CC1)S(C)(=O)=O (racemic) [Compound 85, ethyl 5-[5-cyclopropyl-3-(methylcarbamoyl)-2-(4-methylphenyl)-2H-indazol-6-yl]-5-(methylsulfonyl)pentanoate] | 10 to 50 | 10 to 50
CCC(c1cc2nn(-c3ccc(C)cc3)c(C(=O)NC)c2cc1C1CC1)S(C)(=O)=O (racemic) [Compound 86, 5-cyclopropyl-N-methyl-2-(4-methylphenyl)-6-[1-(methylsulfonyl)propyl]-2H-indazole-3-carboxamide] | 10 to 50 | 1 to 9.99
CNC(=O)c1c2cc(C3CC3)c(N(CCCNC(=O)[C@@H]3CC(=O)N(C)C3)S(C)(=O)=O)cc2nn1-c1ccc(Br)cc1 (racemic) [Compound 182] | < 0.99 | 1 to 9.99
CNC(=O)c1c2cc(C3CC3)c(N([C@H]3CCNC3)S(C)(=O)=O)cc2nn1-c1ccc(Br)cc1 (racemic) [Compound 195] | 1 to 9.99 | 10 to 50
CC[C@H](c1cc2nn(-c3ccc(F)cc3)c(C(=O)NC)c2cc1C1CC1)S(C)(=O)=O (racemic) [Compound 240] | 10 to 50 | 10 to 50
CNC(=O)c1c2cc(C3CC3)c([C@@H]3CN(Cc4ccccc4)C[C@H]3C(C)=O)cc2nn1-c1ccc(Br)cc1 (relative stereo) [Compound 80, trans-6-(4-acetyl-1-benzylpyrrolidin-3-yl)-2-(4-bromophenyl)-5-cyclopropyl-N-methyl-2H-indazole-3-carboxamide] | – | 1 to 9.99
CNC(=O)c1c2cc(C3CC3)c(NS(C)(=O)=O)cc2nn1-c1ccc(Br)cc1 [Compound 1, 2-(4-bromophenyl)-5-cyclopropyl-N-methyl-6-[(methylsulfonyl)amino]-2H-indazole-3-carboxamide] | 10 to 50 | 1 to 9.99
CNC(=O)c1c2cc(C3CC3)c(N(CCO)S(C)(=O)=O)cc2nn1-c1ccc(Oc2ccc(F)cc2)cc1 [Compound 3, 5-cyclopropyl-2-[4-(4-fluorophenoxy)phenyl]-6-[(2-hydroxyethyl)-(methylsulfonyl)amino]-N-methyl-2H-indazole-3-carboxamide] | 1 to 9.99 | < 0.99
CNC(=O)c1c2cc(C3CC3)c(N(CCNC(=O)Cc3nn[nH]n3)S(C)(=O)=O)cc2nn1-c1ccc(Br)cc1 [Compound 8, 2-(4-bromophenyl)-5-cyclopropyl-N-methyl-6-[(methylsulfonyl){2-[(2H-tetrazol-5-ylacetyl)amino]ethyl}amino]-2H-indazole-3-carboxamide] | < 0.99 | 10 to 50
CNC(=O)c1c2cc(OC)c(N(CCO)S(C)(=O)=O)cc2nn1-c1ccc(F)cc1 [Compound 12, 2-(4-fluorophenyl)-6-[2-hydroxyethyl(methylsulfonyl)amino]-5-methoxy-N-methyl-indazole-3-carboxamide] | – | 10 to 50
CNC(=O)c1c2cc(C3CC3)c(N(CCO)S(C)(=O)=O)cc2nn1-c1ccc(F)cc1 [Compound 14, 5-cyclopropyl-2-(4-fluorophenyl)-6-[(2-hydroxyethyl)(methylsulfonyl)amino]-N-methyl-2H-indazole-3-carboxamide] | 10 to 50 | 1 to 9.99
CNC(=O)c1c2cc(C3CC3)c(N(CCOC(=O)c3ccccc3C(=O)O)S(C)(=O)=O)cc2nn1-c1ccc(F)cc1 [Compound 15, 2-[(2-{[5-cyclopropyl-2-(4-fluorophenyl)-3-(methylcarbamoyl)-2H-indazol-6-yl](methylsulfonyl)amino}ethoxy)carbonyl]benzoic acid] | 1 to 9.99 | –
CNC(=O)c1c2cc(C3CC3)c(N(CCO)S(C)(=O)=O)cc2nn1-c1ccc(Oc2ccccc2F)cc1 [Compound 18] | 1 to 9.99 | 1 to 9.99
CNC(=O)c1c2cc(C3CC3)c(N(CCO)S(C)(=O)=O)cc2nn1-c1ccc(Nc2ccc(F)cc2)cc1 [Compound 19] | < 0.99 | < 0.99
CCN(c1cc2nn(-c3ccc(Br)cc3)c(C(=O)NC)c2cc1C1CC1)S(C)(=O)=O [Compound 20] | < 0.99 | < 0.99
CCN(c1cc2nn(-c3ccc(Oc4ccc(F)cc4)cc3)c(C(=O)NC)c2cc1C1CC1)S(C)(=O)=O [Compound 23] | < 0.99 | < 0.99
CNC(=O)c1c2cc(C3CC3)c(N(CCO)S(C)(=O)=O)cc2nn1-c1ccc(Br)cc1 [Compound 24] | < 0.99 | < 0.99
CCN(c1cc2nn(-c3ccc(Nc4ccccc4F)cc3)c(C(=O)NC)c2cc1C1CC1)S(C)(=O)=O [Compound 25] | < 0.99 | < 0.99
CNC(=O)c1c2cc(C3CC3)c(N(CCO)S(C)(=O)=O)cc2nn1-c1ccc(Nc2ccccc2F)cc1 [Compound 26] | < 0.99 | < 0.99

SMILES | IC50 (1b (BK) NS5bΔ21) [µM] | EC50 [1] [µM]
CNC(=O)c1c2cc(C3CC3)c(N(CCO)S(C)(=O)=O)cc2nn1-c1ccc(Nc2ccccc2)cc1 [Compound 27] | < 0.99 | < 0.99
CNC(=O)c1c2cc(C3CC3)c(N(CCCO)S(C)(=O)=O)cc2nn1-c1ccc(Oc2ccccc2F)cc1 [Compound 29] | < 0.99 | < 0.99
CNC(=O)c1c2cc(C3CC3)c(N(CCCO)S(C)(=O)=O)cc2nn1-c1ccc(Oc2ccc(F)cc2)cc1 [Compound 30] | < 0.99 | < 0.99
CNC(=O)c1c2cc(C3CC3)c(N(CCNC(=O)Cc3nn[nH]n3)S(C)(=O)=O)cc2nn1-c1ccc(Nc2ccc(F)cc2)cc1 [Compound 31] | < 0.99 | –
CNC(=O)c1c2cc(C3CC3)c(N(CCO)S(C)(=O)=O)cc2nn1-c1ccc(Nc2cccc(O)c2)cc1 [Compound 33] | 10 to 50 | –
CNC(=O)c1c2cc(C3CC3)c(N(CCO)S(C)(=O)=O)cc2nn1-c1ccc(Oc2ccccc2)cc1 [Compound 35] | 1 to 9.99 | < 0.99
CNC(=O)c1c2cc(C3CC3)c(N(CCNC(C)=O)S(C)(=O)=O)cc2nn1-c1ccc(Oc2ccc(F)cc2)cc1 [Compound 36] | 1 to 9.99 | 1 to 9.99
CNC(=O)c1c2cc(C3CC3)c(N(CCNC(C)=O)S(C)(=O)=O)cc2nn1-c1ccc(Br)cc1 [Compound 37] | 1 to 9.99 | 1 to 9.99
CCN(c1cc2nn(-c3ccc(NC(C)C)cc3)c(C(=O)NC)c2cc1C1CC1)S(C)(=O)=O [Compound 38] | 1 to 9.99 | < 0.99
CCN(C(C)=O)c1cc2nn(-c3ccc(Br)cc3)c(C(=O)NC)c2cc1C1CC1 [Compound 48, 6-[Acetyl(ethyl)amino]-2-(4-bromophenyl)-5-cyclopropyl-N-methyl-2H-indazole-3-carboxamide] | 10 to 50 | 1 to 9.99
CNC(=O)c1c2cc(C3CC3)c(N(CCCO)S(C)(=O)=O)cc2nn1-c1ccc(C(C)C)cc1 [Compound 50, 5-cyclopropyl-6-[(3-hydroxypropyl)(methylsulfonyl)amino]-N-methyl-2-[4-(propan-2-yl)-phenyl]-2H-indazole-3-carboxamide] | 1 to 9.99 | 1 to 9.99
CCn1ccnc1-c1cc2nn(-c3ccc(F)cc3)c(C(=O)NC)c2cc1C1CC1 [Compound 84, 5-Cyclopropyl-6-(1-ethyl-1H-imidazol-2-yl)-2-(4-fluorophenyl)-N-methyl-2H-indazole-3-carboxamide] | – | 10 to 50
CNC(=O)c1c2cc(C3CC3)c(N3CCNS3(=O)=O)cc2nn1-c1ccc(Br)cc1 [Compound 103, 2-(4-Bromophenyl)-5-cyclopropyl-6-(1,1-dioxido-1,2,5-thiadiazolidin-2-yl)-N-methyl-2H-indazole-3-carboxamide] | 1 to 9.99 | –
CCN(c1cc2nn(-c3ccc(OCC(C)C)cc3)c(C(=O)NC)c2cc1C1CC1)S(C)(=O)=O [Compound 121] | 1 to 9.99 | –
CCN(c1cc2nn(-c3ccc(F)cc3)c(C(=O)NC)c2cc1C(C)C)S(C)(=O)=O [Compound 130] | – | 10 to 50
CCN(c1ccc2c(C(=O)NC)n(-c3ccc(F)cc3)nc2c1)S(C)(=O)=O [Compound 137] | 10 to 50 | –
CNC(=O)c1c2cc(C3CC3)c(-c3cncn3C)cc2nn1-c1ccc(F)cc1 [Compound 158] | 10 to 50 | –
CNC(=O)c1c2cc(C3CC3)c(-c3ncc(CO)s3)cc2nn1-c1ccc(F)cc1 [Compound 159] | – | 10 to 50
CCN(C)S(=O)(=O)c1cc2nn(-c3ccc(F)cc3)c(C(=O)NC)c2cc1C1CC1 [Compound 227] | – | 10 to 50
